Test results as given in patent US4605515A, “Calcitonin-(1-23)-peptide amide” (Armour Pharmaceutical Company, priority 1984, dated 1986).
Bridge positions count the residues as written; N and C are the ends. Ends that are not written are not given here. Peptide text beside a SMILES is read from it.

Key:
[1] = system: serum calcium concentration
Description: Rats were divided into four groups of seven animals, and each group was assigned at random to a dose of standard or test solution. Low and high doses were chosen from the linear portion of the dose-response curve. For the salmon calcitonin standard, the values were 0.7 and 2.1 mcg. peptide/100 g. body weight (BW). This dose approximates 3 and 9 MU/100 g. BW. Peptides were given by subcutaneous injection (0.2 ml/100 g. BW) and blood was withdrawn 1 hour later for serum calcium determination. Sera are processed and analyzed within two hours of collection.

[2] = literature values; cited from earlier work

| Molecule | hypocalcemic potency [2] | also measured |
| --- | --- | --- |
| CC(C)C[C@H](NC(=O)[C@H](CCCCN)NC(=O)CNC(=O)[C@H](CC(C)C)NC(=O)[C@@H](NC(=O)[C@@H]1CSSC[C@H](N)C(=O)N[C@@H](CO)C(=O)N[C@@H](CC(N)=O)C(=O)N[C@@H](CC(C)C)C(=O)N[C@@H](CO)C(=O)N[C@@H]([C@@H](C)O)C(=O)N1)C(C)C)C(=O)N[C@@H](CO)C(=O)N[C@@H](CCC(N)=O)C(=O)N[C@@H](CCC(=O)O)C(=O)N[C@@H](CC(C)C)C(=O)N[C@@H](Cc1c[nH]cn1)C(=O)N[C@@H](CCCCN)C(=O)N[C@@H](CC(C)C)C(=O)N[C@@H](CCC(N)=O)C(=O)N[C@H](C(=O)N[C@@H](Cc1ccc(O)cc1)C(=O)N1CCC[C@H]1C(=O)N[C@@H](CCCNC(=N)N)C(=O)N[C@H](C(=O)N[C@@H](CC(N)=O)C(=O)N[C@H](C(=O)NCC(=O)N[C@@H](CO)C(=O)NCC(=O)N[C@H](C(=O)N1CCC[C@H]1C(N)=O)[C@@H](C)O)[C@@H](C)O)[C@@H](C)O)[C@@H](C)O [standard salmon calcitonin, Salmon calcitonin] |  | potency of the standard, independently determined ([1]; standard salmon calcitonin used, independently determined): greater than 4,000 IU/mg |
| (1,7-α-L-aminosuberic acid) eel calcitonin | about 3400 Iu/mg |  |
| CC(C)C[C@H](NC(=O)[C@H](CCCCN)NC(=O)CNC(=O)[C@H](CC(C)C)NC(=O)[C@@H](NC(=O)[C@@H]1CSSC[C@H](N)C(=O)N[C@@H](CO)C(=O)N[C@@H](CC(N)=O)C(=O)N[C@@H](CC(C)C)C(=O)N[C@@H](CO)C(=O)N[C@@H]([C@@H](C)O)C(=O)N1)C(C)C)C(=O)N[C@@H](CO)C(=O)N[C@@H](CCC(N)=O)C(=O)N[C@@H](CCC(=O)O)C(=O)N[C@@H](CC(C)C)C(=O)N[C@@H](Cc1c[nH]cn1)C(=O)N[C@@H](CCCCN)C(=O)N[C@@H](CC(C)C)C(=O)N[C@@H](CCC(N)=O)C(=O)N[C@H](C(=O)N[C@@H](Cc1ccc(O)cc1)C(=O)N1CCC[C@H]1C(N)=O)[C@@H](C)O [calcitonin-(1-23)-peptide amide, Calcitonin-(1-23)-peptide amide] (H-CSNLSTCVLGKLSQELHKLQTYP-NH2; disulfide 1-7) |  | biological potency ([1]; rat, in vivo, sc): 11.5 IU/mg |
| eel calcitonin (CSNLSTCVLGKLSQELHKLQTYPRTDVGAGTP-NH2; disulfide 1-7; ends not checked; UniProt P01262 1-32, looked up) [synthetic eel calcitonin, synthetic eel calcitonin of Monikawa et al] | around 4300 Iu/mg |  |
